{"source": "patent US8012956B2", "about": "“Tropane compounds” (Exelixis, Inc., priority 2007, dated 2011)", "data": [{"molecular_target": "HSP90 (Homo sapiens, UniProt P07900)", "test": "HSP90 inhibition (HSP90 IC50)", "assay_type": "biochemical", "units": {"IC50": "µM"}, "values": [{"compound": "CCC(CC)Nc1cc(C(=O)N[C@H]2C[C@H]3CC[C@@H](C2)N3c2ccc(C(=O)CCN3CCCCC3)cn2)ccc1C(N)=O", "note": "[2-[(1-ethylpropyl)amino]-N4-{8-[5-(3-piperidin-1-ylpropanoyl)pyridin-2-yl]-8-azabicyclo[3.2.1]oct-3-endo-yl}benzene-1,4-dicarboxamide]", "IC50": "< 0.5"}, {"compound": "CCC(CC)Nc1cc(C(=O)NC2CC3CCC(C2)N3c2ccc(C(=O)N[C@@H]3CCN(C(C)C)C3)cn2)ccc1C(N)=O", "note": "(stereo partly drawn) [2-[(1-ethylpropyl)amino]-N4-{8-[5-({[(3R)-1-(1-methylethyl)pyrrolidin-3-yl]amino}carbonyl)pyridin-2-yl]-8-azabicyclo[3.2.1]oct-3-endo-yl}benzene-1,4-dicarboxamide]", "IC50": "< 0.5"}, {"compound": "CCC(CC)Nc1cc(C(=O)NC2CC3CCC(C2)N3c2ccc(C(=O)N[C@@H]3CCN(CC)C3)cn2)ccc1C(N)=O", "note": "(stereo partly drawn) [2-[(1-ethylpropyl)amino]-N4-{8-[5-({[(3R)-1-ethylpyrrolidin-3-yl]amino}carbonyl)pyridin-2-yl]-8-azabicyclo[3.2.1]oct-3-endo-yl}benzene-1,4-dicarboxamide]", "IC50": "< 0.5"}, {"compound": "CCC(CC)Nc1cc(C(=O)NC2CC3CCC(C2)N3c2ccc(C(=O)N[C@H]3CCN(C(C)C)C3)cn2)ccc1C(N)=O", "note": "(stereo partly drawn) [2-[(1-ethylpropyl)amino]-N4-{8-[5-({[(3S)-1-(1-methylethyl)pyrrolidin-3-yl]amino}carbonyl)pyridin-2-yl]-8-azabicyclo[3.2.1]oct-3-endo-yl}benzene-1,4-dicarboxamide]", "IC50": "< 0.5"}, {"compound": "C[C@H](NC(=O)c1ccc(N2C3CCC2CC(NC(=O)c2ccc(C(N)=O)c(N[C@H]4CC[C@H](O)CC4)c2)C3)nc1)c1ccc(N2CCN(C)CC2)cc1", "note": "(stereo partly drawn) [2-[(4-hydroxycyclohexyl)amino]-N4-(8-{5-[({(1S)-1-[4-(4-methylpiperazin-1-yl)phenyl]ethyl}amino)carbonyl]pyridin-2-yl}-8-azabicyclo[3.2.1]oct-3-endo-yl)benzene-1,4-dicarboxamide]", "IC50": "< 0.5"}, {"compound": "CC(C)N1CC[C@@H](NC(=O)c2ccc(N3C4CCC3CC(NC(=O)c3ccc(C(N)=O)c(N[C@H]5CC[C@H](O)CC5)c3)C4)nc2)C1", "note": "(stereo partly drawn) [2-[(4-trans-hydroxycyclohexyl)amino]-N4-{8-[5-({[1-(1-methylethyl)pyrrolidin-3-yl]amino}carbonyl)pyridin-2-yl]-8-azabicyclo[3.2.1]oct-3-endo-yl}benzene-1,4-dicarboxamide]", "IC50": "< 0.5"}, {"compound": "NC(=O)c1ccc(C(=O)N[C@H]2C[C@H]3CC[C@@H](C2)N3c2ccc(C(=O)CCNc3ccc(F)cc3)cn2)cc1NCC1CC1", "note": "[2-[(cyclopropylmethyl)amino]-N4-(8-{5-(N-(4-fluorophenyl)-beta-alanyl]pyridin-2-yl}-8-azabicyclo[3.2.1]oct-3-endo-yl)benzene-1,4-dicarboxamide]", "IC50": "2 to 10"}, {"compound": "CN1CCC(CCC(=O)c2ccc(N3[C@@H]4CC[C@H]3C[C@@H](NC(=O)c3ccc(C(N)=O)c(NCC5CC5)c3)C4)nc2)CC1", "note": "[2-[(cyclopropylmethyl)amino]-N4-(8-{5-[3-(1-methylpiperidin-4-yl)propanoyl]pyridin-2-yl}-8-azabicyclo[3.2.1]oct-3-endo-yl)benzene-1,4-dicarboxamide]", "IC50": "< 0.5"}, {"compound": "CN1CCN(CCC(=O)c2ccc(N3[C@@H]4CC[C@H]3C[C@@H](NC(=O)c3ccc(C(N)=O)c(NCC5CC5)c3)C4)nc2)CC1", "note": "[2-[(cyclopropylmethyl)amino]-N4-(8-{5-[3-(4-methylpiperazin-1-yl)propanoyl]pyridin-2-yl}-8-azabicyclo[3.2.1]oct-3-endo-yl)benzene-1,4-dicarboxamide]", "IC50": "< 0.5"}, {"compound": "NC(=O)c1ccc(C(=O)N[C@H]2C[C@H]3CC[C@@H](C2)N3c2ccc(C(=O)CCN3CCN(c4ccccc4)CC3)cn2)cc1NCC1CC1", "note": "[2-[(cyclopropylmethyl)amino]-N4-(8-{5-[3-(4-phenylpiperazin-1-yl)propanoyl]pyridin-2-yl}-8-azabicyclo[3.2.1]oct-3-endo-yl)benzene-1,4-dicarboxamide]", "IC50": "0.5 to 0.999"}, {"compound": "CCOCCC(=O)c1ccc(N2[C@@H]3CC[C@H]2C[C@@H](NC(=O)c2ccc(C(N)=O)c(NCC4CC4)c2)C3)nc1", "note": "[2-[(cyclopropylmethyl)amino]-N4-(8-{5-[3-(ethyloxy)propanoyl]pyridin-2-yl}-8-azabicyclo[3.2.1]oct-3-endo-yl)benzene-1,4-dicarboxamide]", "IC50": "< 0.5"}, {"compound": "COCCC(=O)c1ccc(N2[C@@H]3CC[C@H]2C[C@@H](NC(=O)c2ccc(C(N)=O)c(NCC4CC4)c2)C3)nc1", "note": "[2-[(cyclopropylmethyl)amino]-N4-(8-{5-[3-(methyloxy)propanoyl]pyridin-2-yl}-8-azabicyclo[3.2.1]oct-3-endo-yl)benzene-1,4-dicarboxamide]", "IC50": "< 0.5"}, {"compound": "C[C@H](NC(=O)c1ccc(N2C3CCC2CC(NC(=O)c2ccc(C(N)=O)c(NCC4CC4)c2)C3)nc1)c1ccc(N2CCN(C)CC2)cc1", "note": "(stereo partly drawn) [2-[(cyclopropylmethyl)amino]-N4-(8-{5-[({(1S)-1-[4-(4-methylpiperazin-1-yl)phenyl]ethyl}amino)carbonyl]pyridin-2-yl}-8-azabicyclo[3.2.1]oct-3-endo-yl)benzene-1,4-dicarboxamide]", "IC50": "< 0.5"}, {"compound": "CCC(=O)c1ccc(N2[C@@H]3CC[C@H]2C[C@@H](NC(=O)c2ccc(C(N)=O)c(NCC4CC4)c2)C3)nc1", "note": "[2-[(cyclopropylmethyl)amino]-N4-[8-(5-propanoylpyridin-2-yl)-8-azabicyclo[3.2.1]oct-3-endo-yl]benzene-1,4-dicarboxamide]", "IC50": "< 0.5"}, {"compound": "CON(C)C(=O)c1ccc(N2[C@@H]3CC[C@H]2C[C@@H](NC(=O)c2ccc(C(N)=O)c(NCC4CC4)c2)C3)nc1", "note": "[2-[(cyclopropylmethyl)amino]-N4-[8-(5-{[methyl(methyloxy)amino]carbonyl}pyridin-2-yl)-8-azabicyclo[3.2.1]oct-3-endo-yl]benzene-1,4-dicarboxamide]", "IC50": "1 to 2"}, {"compound": "NC(=O)c1ccc(C(=O)N[C@H]2C[C@H]3CC[C@@H](C2)N3c2ccc(C(=O)CCN3CCCCC3)cn2)cc1NCC1CC1", "note": "[2-[(cyclopropylmethyl)amino]-N4-{8-(5-(3-piperidin-1-ylpropanoyl)pyridin-2-yl]-8-azabicyclo[3.2.1]oct-3-endo-yl}benzene-1,4-dicarboxamide]", "IC50": "< 0.5"}, {"compound": "NC(=O)c1ccc(C(=O)NC2CC3CCC(C2)N3c2ccc(C(=O)CC(O)c3ccccc3)cn2)cc1NCC1CC1", "note": "(stereo not drawn) [2-[(cyclopropylmethyl)amino]-N4-{8-[5-(3-hydroxy-3-phenylpropanoyl)pyridin-2-yl]-8-azabicyclo[3.2.1]oct-3-endo-yl}benzene-1,4-dicarboxamide]", "IC50": "0.5 to 0.999"}, {"compound": "CC(C)C(O)CC(=O)c1ccc(N2[C@@H]3CC[C@H]2C[C@@H](NC(=O)c2ccc(C(N)=O)c(NCC4CC4)c2)C3)nc1", "note": "(stereo partly drawn) [2-[(cyclopropylmethyl)amino]-N4-{8-[5-(3-hydroxy-4-methylpentanoyl)pyridin-2-yl]-8-azabicyclo[3.2.1]oct-3-endo-yl}benzene-1,4-dicarboxamide]", "IC50": "< 0.5"}, {"compound": "CC(C)CC(=O)c1ccc(N2[C@@H]3CC[C@H]2C[C@@H](NC(=O)c2ccc(C(N)=O)c(NCC4CC4)c2)C3)nc1", "note": "[2-[(cyclopropylmethyl)amino]-N4-{8-[5-(3-methylbutanoyl)pyridin-2-yl]-8-azabicyclo[3.2.1]oct-3-endo-yl}benzene-1,4-dicarboxamide]", "IC50": "1 to 2"}]}]}
